What was measured:
[1] = target: Casein kinase I isoform epsilon (Homo sapiens, UniProt P49674)
[2] = target: Cyclin-dependent kinase 5/CDK5 activator 1 (Homo sapiens, UniProt Q00535); format: cell-based, Sf9
[3] = target: Dual specificity protein kinase CLK2 (Homo sapiens, UniProt P49760)
[4] = target: Dual specificity protein kinase CLK3 (Homo sapiens, UniProt P49761); format: cell-based, Sf9
[5] = target: Dual specificity protein kinase CLK4 (Homo sapiens, UniProt Q9HAZ1)
[6] = target: T1, Dual specificity tyrosine-phosphorylation-regulated kinase 2 (Homo sapiens, UniProt Q92630)
T1 sequence (Q92630 whole entry): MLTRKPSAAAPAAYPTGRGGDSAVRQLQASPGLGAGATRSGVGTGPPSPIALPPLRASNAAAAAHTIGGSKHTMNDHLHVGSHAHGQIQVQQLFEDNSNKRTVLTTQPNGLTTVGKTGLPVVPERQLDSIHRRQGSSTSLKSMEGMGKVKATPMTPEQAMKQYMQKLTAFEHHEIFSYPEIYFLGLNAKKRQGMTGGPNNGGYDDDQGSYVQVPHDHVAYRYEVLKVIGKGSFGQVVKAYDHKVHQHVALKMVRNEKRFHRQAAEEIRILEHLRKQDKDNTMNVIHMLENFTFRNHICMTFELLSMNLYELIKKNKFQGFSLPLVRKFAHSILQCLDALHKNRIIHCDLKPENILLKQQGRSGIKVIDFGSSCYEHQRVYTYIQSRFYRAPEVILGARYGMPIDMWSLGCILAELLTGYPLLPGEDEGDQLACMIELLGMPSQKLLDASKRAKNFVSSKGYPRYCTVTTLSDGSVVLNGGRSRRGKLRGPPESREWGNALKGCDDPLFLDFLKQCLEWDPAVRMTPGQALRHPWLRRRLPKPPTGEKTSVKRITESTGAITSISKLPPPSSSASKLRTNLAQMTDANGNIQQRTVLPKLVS

[7] = target: T2, Dual specificity tyrosine-phosphorylation-regulated kinase 3 (Homo sapiens, UniProt O43781)
T2 sequence (O43781 whole entry): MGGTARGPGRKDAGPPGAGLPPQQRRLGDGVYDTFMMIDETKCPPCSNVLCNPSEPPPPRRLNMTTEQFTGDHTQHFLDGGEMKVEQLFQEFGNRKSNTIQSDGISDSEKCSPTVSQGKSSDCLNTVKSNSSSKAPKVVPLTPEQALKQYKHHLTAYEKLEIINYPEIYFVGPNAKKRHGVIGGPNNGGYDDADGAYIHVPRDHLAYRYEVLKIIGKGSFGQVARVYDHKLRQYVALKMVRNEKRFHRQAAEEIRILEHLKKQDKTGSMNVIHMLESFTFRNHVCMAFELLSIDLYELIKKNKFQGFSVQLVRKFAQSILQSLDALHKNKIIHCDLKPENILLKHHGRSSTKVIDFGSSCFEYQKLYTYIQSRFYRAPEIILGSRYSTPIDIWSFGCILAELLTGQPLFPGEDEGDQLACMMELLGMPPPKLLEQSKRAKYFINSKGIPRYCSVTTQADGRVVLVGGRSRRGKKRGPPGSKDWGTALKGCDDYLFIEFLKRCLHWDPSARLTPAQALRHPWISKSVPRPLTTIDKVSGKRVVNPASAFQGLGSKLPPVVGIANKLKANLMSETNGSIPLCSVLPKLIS

[8] = target: T3, Dual specificity tyrosine-phosphorylation-regulated kinase 4 (Homo sapiens, UniProt Q9NR20)
T3 sequence (Q9NR20 whole entry): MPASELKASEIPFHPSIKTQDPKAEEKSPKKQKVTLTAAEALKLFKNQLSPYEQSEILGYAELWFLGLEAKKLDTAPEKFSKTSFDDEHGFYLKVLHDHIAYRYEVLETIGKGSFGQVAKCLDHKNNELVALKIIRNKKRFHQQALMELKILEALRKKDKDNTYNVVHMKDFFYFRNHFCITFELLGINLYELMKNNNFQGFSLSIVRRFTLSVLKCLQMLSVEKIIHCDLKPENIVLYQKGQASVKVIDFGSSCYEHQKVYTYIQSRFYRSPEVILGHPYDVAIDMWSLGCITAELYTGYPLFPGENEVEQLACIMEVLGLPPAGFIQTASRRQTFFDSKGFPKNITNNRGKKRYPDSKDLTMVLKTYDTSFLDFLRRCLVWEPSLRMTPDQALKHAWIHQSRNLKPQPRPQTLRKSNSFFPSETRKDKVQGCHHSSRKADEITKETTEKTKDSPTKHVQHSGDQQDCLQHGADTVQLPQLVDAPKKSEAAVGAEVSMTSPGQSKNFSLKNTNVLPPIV

[9] = target: Glycogen synthase kinase-3 beta (Homo sapiens, UniProt P49841); format: cell-based, Sf9
Chain of Glycogen synthase kinase-3 beta (P49841 whole entry): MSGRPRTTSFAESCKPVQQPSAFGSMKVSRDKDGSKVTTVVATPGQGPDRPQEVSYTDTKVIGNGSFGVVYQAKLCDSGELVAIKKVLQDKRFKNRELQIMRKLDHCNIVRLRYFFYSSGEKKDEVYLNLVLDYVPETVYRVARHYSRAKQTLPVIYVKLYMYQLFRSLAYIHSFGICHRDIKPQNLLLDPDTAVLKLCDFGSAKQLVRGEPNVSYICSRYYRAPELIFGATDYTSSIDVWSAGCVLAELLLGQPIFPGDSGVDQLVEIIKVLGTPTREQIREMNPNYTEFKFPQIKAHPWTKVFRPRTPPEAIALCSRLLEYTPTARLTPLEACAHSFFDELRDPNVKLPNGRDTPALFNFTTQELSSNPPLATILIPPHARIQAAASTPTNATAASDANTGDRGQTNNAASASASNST

Chain of Dual specificity protein kinase CLK2 (P49760 whole entry): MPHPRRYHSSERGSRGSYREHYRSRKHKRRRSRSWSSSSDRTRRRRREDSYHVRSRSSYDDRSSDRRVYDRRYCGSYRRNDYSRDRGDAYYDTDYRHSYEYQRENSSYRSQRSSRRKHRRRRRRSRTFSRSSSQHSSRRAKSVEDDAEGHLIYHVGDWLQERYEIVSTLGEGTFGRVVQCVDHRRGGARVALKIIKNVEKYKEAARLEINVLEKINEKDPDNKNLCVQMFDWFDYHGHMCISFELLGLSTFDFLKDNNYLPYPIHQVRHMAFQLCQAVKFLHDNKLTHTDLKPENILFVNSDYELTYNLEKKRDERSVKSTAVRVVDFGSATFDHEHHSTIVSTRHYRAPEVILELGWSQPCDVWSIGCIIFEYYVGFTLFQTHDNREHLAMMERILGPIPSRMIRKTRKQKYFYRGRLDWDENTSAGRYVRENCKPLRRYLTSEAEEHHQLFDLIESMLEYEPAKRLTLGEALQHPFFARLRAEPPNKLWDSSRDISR
Chain of Casein kinase I isoform epsilon (P49674 whole entry, canonical isoform): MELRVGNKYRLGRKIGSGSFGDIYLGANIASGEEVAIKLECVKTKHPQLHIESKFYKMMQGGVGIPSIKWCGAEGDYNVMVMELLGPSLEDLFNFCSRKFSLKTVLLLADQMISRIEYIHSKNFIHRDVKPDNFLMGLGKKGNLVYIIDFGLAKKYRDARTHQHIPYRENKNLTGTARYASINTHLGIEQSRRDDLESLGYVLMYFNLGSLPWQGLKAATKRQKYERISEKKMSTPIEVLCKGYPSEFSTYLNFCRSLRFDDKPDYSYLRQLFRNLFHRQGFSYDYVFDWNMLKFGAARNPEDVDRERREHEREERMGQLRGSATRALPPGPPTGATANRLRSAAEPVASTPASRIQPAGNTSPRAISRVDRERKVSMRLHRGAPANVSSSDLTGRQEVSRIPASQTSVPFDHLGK
Chain of Cyclin-dependent kinase 5/CDK5 activator 1 (Q00535 whole entry): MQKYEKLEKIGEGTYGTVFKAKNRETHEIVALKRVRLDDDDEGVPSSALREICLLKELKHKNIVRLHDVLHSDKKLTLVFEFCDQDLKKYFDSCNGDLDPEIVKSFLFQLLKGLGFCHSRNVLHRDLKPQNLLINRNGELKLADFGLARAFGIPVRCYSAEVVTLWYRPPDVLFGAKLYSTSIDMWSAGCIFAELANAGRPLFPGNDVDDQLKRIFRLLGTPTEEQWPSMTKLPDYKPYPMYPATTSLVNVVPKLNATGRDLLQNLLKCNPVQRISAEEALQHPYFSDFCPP
Chain of Cyclin-dependent kinase 5/CDK5 activator 1 (Q15078 whole entry, further chain): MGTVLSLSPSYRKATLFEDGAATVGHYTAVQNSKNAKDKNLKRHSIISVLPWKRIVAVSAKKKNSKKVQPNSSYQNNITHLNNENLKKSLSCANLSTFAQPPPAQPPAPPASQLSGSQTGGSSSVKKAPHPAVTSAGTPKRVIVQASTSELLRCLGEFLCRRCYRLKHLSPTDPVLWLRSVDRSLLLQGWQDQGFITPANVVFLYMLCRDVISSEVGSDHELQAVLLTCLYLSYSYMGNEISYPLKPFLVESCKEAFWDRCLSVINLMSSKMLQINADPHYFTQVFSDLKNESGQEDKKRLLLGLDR
Chain of Dual specificity protein kinase CLK4 (Q9HAZ1 whole entry): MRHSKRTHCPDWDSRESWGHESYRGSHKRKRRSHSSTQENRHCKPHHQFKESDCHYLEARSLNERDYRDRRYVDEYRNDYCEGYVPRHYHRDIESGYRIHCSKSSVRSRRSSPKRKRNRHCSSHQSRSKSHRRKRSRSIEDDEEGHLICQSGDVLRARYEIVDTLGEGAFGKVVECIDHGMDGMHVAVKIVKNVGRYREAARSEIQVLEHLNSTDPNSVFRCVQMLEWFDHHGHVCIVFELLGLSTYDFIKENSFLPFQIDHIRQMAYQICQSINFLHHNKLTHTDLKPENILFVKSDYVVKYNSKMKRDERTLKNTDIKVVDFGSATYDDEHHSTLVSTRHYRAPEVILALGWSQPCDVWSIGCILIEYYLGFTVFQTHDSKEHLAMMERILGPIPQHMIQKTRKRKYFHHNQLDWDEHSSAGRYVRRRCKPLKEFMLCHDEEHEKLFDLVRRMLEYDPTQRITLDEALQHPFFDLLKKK
Chain of Dual specificity protein kinase CLK3 (P49761 whole entry): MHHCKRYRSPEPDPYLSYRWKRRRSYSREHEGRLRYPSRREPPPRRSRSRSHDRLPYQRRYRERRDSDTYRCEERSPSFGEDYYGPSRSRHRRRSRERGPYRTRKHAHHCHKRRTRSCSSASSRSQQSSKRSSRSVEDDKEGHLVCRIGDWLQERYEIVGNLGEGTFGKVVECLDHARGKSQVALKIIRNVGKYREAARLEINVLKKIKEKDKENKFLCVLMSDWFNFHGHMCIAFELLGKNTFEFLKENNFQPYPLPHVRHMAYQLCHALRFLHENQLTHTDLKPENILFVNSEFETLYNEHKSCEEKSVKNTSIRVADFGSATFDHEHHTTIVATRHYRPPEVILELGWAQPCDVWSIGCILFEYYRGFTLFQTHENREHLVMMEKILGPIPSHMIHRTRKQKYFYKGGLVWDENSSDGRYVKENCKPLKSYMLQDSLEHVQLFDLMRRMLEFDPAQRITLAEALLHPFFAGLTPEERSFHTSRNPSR

Row | SMILES | IC50 [1] | IC50 [2] | IC50 [3] | IC50 [4] | IC50 [5] | IC50 [6] | IC50 [7] | IC50 [8] | IC50 [9]
1 | CC(C)(C)C(=O)OC12CC3CC(CC(NC4=N/C(=C\c5ccc6ncsc6c5)C(=O)N4)(C3)C1)C2 | > 10 µM | > 10 µM | 1.31 µM | > 10 µM | 0.436 µM | > 10 µM | > 10 µM | > 10 µM | > 10 µM
2 | CC(C)[C@@H]1CC[C@@H](C)C[C@H]1NC1=N/C(=C\c2ccc3ncsc3c2)C(=O)N1 | > 10 µM | > 10 µM | 0.211 µM | 2.74 µM | 0.147 µM | 9.72 µM | 2.45 µM | 2.56 µM | > 10 µM
3 | CC(C)(C)NC(=O)OC12CC3CC(CC(NC4=N/C(=C\c5ccc6ncsc6c5)C(=O)N4)(C3)C1)C2 | 5 µM | > 10 µM | 0.035 µM | 0.709 µM | 0.011 µM | 0.147 µM | 0.299 µM | 0.127 µM | 1.8 µM
4 | Cc1nc2ccc(/C=C3\N=C(NC4CCCCCC4)NC3=O)cc2s1 | > 10 µM | > 10 µM | 5.63 µM | > 10 µM | 0.034 µM | 2.28 µM | 3.26 µM | > 10 µM | > 10 µM
5 | Cc1nc2ccc(/C=C3\N=C(NC45CC6CC(CC(C6)C4)C5)NC3=O)cc2s1 | > 10 µM | > 10 µM | 1.34 µM | > 10 µM | 0.02 µM | 0.666 µM | 0.324 µM | > 10 µM | > 10 µM
6 | CC(NC1=N/C(=C\c2ccc3ncsc3c2)C(=O)N1)C12CC3CC(CC(C3)C1)C2 (racemic) | > 10 µM | > 10 µM | 1.32 µM | 5.11 µM | 0.21 µM | > 10 µM | > 10 µM | > 10 µM | > 10 µM
7 | COC(=O)[C@@H](CC(C)C)NC1=N/C(=C\c2ccc3ncsc3c2)C(=O)N1 |  | > 10 µM | 0.378 µM | 0.852 µM | 0.034 µM | 2.37 µM | 5.07 µM | 2.26 µM | 1.34 µM

Second part, the compound after the results:

Row | IC50 [1] | IC50 [2] | IC50 [3] | IC50 [4] | IC50 [5] | IC50 [6] | IC50 [7] | IC50 [8] | IC50 [9] | SMILES
8 | > 10 µM | > 10 µM | 0.923 µM | 4.48 µM | 0.028 µM | 0.854 µM | 2.02 µM | 3.47 µM | > 10 µM | CC1(C)CNC(=O)C1NC1=N/C(=C\c2ccc3ncsc3c2)C(=O)N1 (racemic)
9 | > 10 µM | > 10 µM | 0.416 µM | 2.81 µM | 0.027 µM | 3.3 µM | 2.98 µM | 6.08 µM | > 10 µM | CN1CCCC(NC2=N/C(=C\c3ccc4ncsc4c3)C(=O)N2)C1=O (racemic)
10 | > 10 µM | > 10 µM | 14.2 µM | > 10 µM | 3.13 µM | > 10 µM | > 10 µM | > 10 µM | > 10 µM | CCCCCCc1ccc(NC2=N/C(=C\c3ccc4ncsc4c3)C(=O)N2)cc1
11 |  | > 10 µM | 0.127 µM | 0.722 µM | 0.024 µM | 1.89 µM | 1.8 µM | 1.63 µM | 2.81 µM | Cc1ccc(CNC2=N/C(=C\c3ccc4ncsc4c3)C(=O)N2)o1
12 |  | > 10 µM | 0.094 µM | 0.698 µM | 0.012 µM | 0.811 µM | 1.13 µM | 1.29 µM | > 10 µM | O=C1NC(NCC2CCOCC2)=N/C1=C\c1ccc2ncsc2c1
13 | > 10 µM | > 10 µM | 0.627 µM | 2.26 µM | 0.034 µM | 2.39 µM | 4.03 µM |  | 7.74 µM | O=C1NC(Nc2ncccn2)=N/C1=C\c1ccc2ncsc2c1
14 |  | > 10 µM | 0.219 µM | 1.7 µM | 0.017 µM | 0.903 µM | 1.54 µM | 0.821 µM | 4.1 µM | COC(=O)[C@H](CC(C)C)NC1=N/C(=C\c2ccc3ncsc3c2)C(=O)N1
